Experimental data reported in the OligoGym collection.
Where “and” joins values, the source holds several entries; their conditions need not be identical. Equal entries are not always repeated. After the bases stand the sugars from the 5' end (letter, count) and the backbone: PS all phosphorothioate, else s phosphorothioate and o phosphodiester by linkage. Methylation of C is not given here. e = 2'-O-(2-methoxyethyl) (MOE); k = constrained ethyl (cEt); d = 2'-deoxy (DNA)

Target: SOD1
Conditions: ASO

CCGTCGCCCTTCAGCAC (sugars e2 k2 d8 k2 e3, PS)
target mRNA inhibition (HepG2, 4 µM): 71%

CTATACAAATCTTCCAA (sugars e3 k2 d7 k2 e3, PS)
target mRNA inhibition (HepG2, 3 µM): 13%

CCGAGGTCCTGGTTCCGAGG (sugars e5 d10 e5, PS)
target mRNA inhibition (HepG2, 4 µM): 18%

TTCTGACAAGTTTAATA (sugars e3 k2 d7 k2 e3, PS)
target mRNA inhibition (HepG2, 3 µM): 6%

CACTGGTCCATTACTTT (sugars e3 k2 d7 k2 e3, PS)
target mRNA inhibition (HepG2, 3 µM): 12%

ACTACATCCAAGGGAAT (sugars e2 k2 d8 k2 e3, PS)
target mRNA inhibition (HepG2, 4 µM): 42%

ATTGGGCGATCCCAATT (sugars e2 k2 d9 k2 e2, PS)
target mRNA inhibition (HepG2, 4 µM): 23%

CCATACAGGGTTTTTAT (sugars e2 k2 d9 k2 e2, PS)
target mRNA inhibition (HepG2, 5 µM): 34%

ATGTTTATCAGGATACA (sugars e2 k2 d9 k2 e2, linkages s1 o3 s9 o1 s2)
target mRNA inhibition (A431, 0.12 µM): 1%
target mRNA inhibition (A431, 0.6 µM): 4%
target mRNA inhibition (A431, 3 µM): 21%
target mRNA inhibition (A431, 15 µM): 29%
target mRNA inhibition (HepG2, 0.222 µM): 47%
target mRNA inhibition (HepG2, 0.667 µM): 71%
target mRNA inhibition (HepG2, 2 µM): 92%
target mRNA inhibition (HepG2, 6 µM): 82%

GTGTTTAATGTTTATCAG (sugars e5 d8 e5, linkages s1 o3 s9 o2 s2)
target mRNA inhibition (A431, 0.12 µM): 1%
target mRNA inhibition (A431, 0.6 µM): 15%
target mRNA inhibition (A431, 3 µM): 36%
target mRNA inhibition (A431, 15 µM): 50%
target mRNA inhibition (HepG2, 0.222 µM): 20%
target mRNA inhibition (HepG2, 0.667 µM): 43%
target mRNA inhibition (HepG2, 2 µM): 56%
target mRNA inhibition (HepG2, 6 µM): 81%

TTTTAGTTTGAATTTGGATT (sugars e5 d10 e5, PS)
target mRNA inhibition (HepG2, 5 µM): 0%

ATTACACCACAAGCCAA (sugars e2 k2 d8 k2 e3, PS)
target mRNA inhibition (HepG2, 4 µM): 46%

AATAGACACATCGGCCACAC (sugars e5 d10 e5, PS)
target mRNA inhibition (HepG2, 5 µM): 30% and 25%

CTTTTTCATGGACCACC (sugars e3 k2 d7 k2 e3, PS)
target mRNA inhibition (HepG2, 3 µM): 87%

TATTGGGCGATCCCAAT (sugars e2 k2 d9 k2 e2, PS)
target mRNA inhibition (HepG2, 4 µM): 6%

TTGGATTCTTTTAATAG (sugars e2 k2 d8 k2 e3, PS)
target mRNA inhibition (HepG2, 5 µM): 23%

TTACACTTTTAAGATTACAG (sugars e5 d10 e5, PS)
target mRNA inhibition (HepG2, 5 µM): 0%

TCAGTTTCTCACTACAG (sugars e2 k2 d8 k2 e3, PS)
target mRNA inhibition (HepG2, 5 µM): 25%

TCATAATAAGTGCCATACAG (sugars e5 d10 e5, PS)
target mRNA inhibition (HepG2, 5 µM): 0%

TGAAACAGACATTTTAACTG (sugars e5 d10 e5, PS)
target mRNA inhibition (HepG2, 5 µM): 0%

ACACAATTACACTTTTAAGA (sugars e5 d10 e5, PS)
target mRNA inhibition (HepG2, 5 µM): 0%

TTAATACCCATCTGTGA (sugars e3 k2 d7 k2 e3, PS)
target mRNA inhibition (HepG2, 3 µM): 2%

AAGTGCCATACAGGGTT (sugars e2 k2 d9 k2 e2, PS)
target mRNA inhibition (HepG2, 5 µM): 21%

ATTGGGCGATCCCAATT (sugars e3 k2 d7 k2 e3, PS)
target mRNA inhibition (HepG2, 3 µM): 19%

ACAGCTAGCAGGATAAC (sugars e2 k2 d9 k2 e2, PS)
target mRNA inhibition (HepG2, 0.1875 µM): 29%
target mRNA inhibition (HepG2, 0.75 µM): 71%
target mRNA inhibition (HepG2, 3 µM): 89%
target mRNA inhibition (HepG2, 4 µM): 83%
target mRNA inhibition (HepG2, 12 µM): 97%

GCTTGAATGACAAAGAA (sugars e2 k2 d9 k2 e2, PS)
target mRNA inhibition (HepG2, 5 µM): 32%

CAAGGGAATGTTTATTG (sugars e2 k2 d9 k2 e2, PS)
target mRNA inhibition (HepG2, 4 µM): 38%

GATTAAAGTGAGGACCT (sugars e3 k2 d7 k2 e3, PS)
target mRNA inhibition (HepG2, 3 µM): 8%

CCCAATTACACCACAAG (sugars e2 k2 d9 k2 e2, PS)
target mRNA inhibition (HepG2, 0.1875 µM): 25%
target mRNA inhibition (HepG2, 0.75 µM): 52%
target mRNA inhibition (HepG2, 3 µM): 82%
target mRNA inhibition (HepG2, 4 µM): 74%
target mRNA inhibition (HepG2, 12 µM): 97%

CAGACTACATCCAAGGG (sugars e2 k2 d9 k2 e2, PS)
target mRNA inhibition (HepG2, 0.1875 µM): 28%
target mRNA inhibition (HepG2, 0.75 µM): 55%
target mRNA inhibition (HepG2, 3 µM): 74%
target mRNA inhibition (HepG2, 4 µM): 78%
target mRNA inhibition (HepG2, 12 µM): 91%

AGCAACTCTGAAAAAGTCAC (sugars e5 d10 e5, PS)
target mRNA inhibition (HepG2, 5 µM): 14%

CTGTGATTTAAGTCTGG (sugars e2 k2 d9 k2 e2, PS)
target mRNA inhibition (HepG2, 5 µM): 61%

GGATAACAGATGAGTTAAGG (sugars e5 d10 e5, PS)
target mRNA inhibition (HepG2, 5 µM): 48%

CTTCCCCACACCTTCACT (sugars e5 d8 e5, linkages s1 o3 s9 o2 s2)
target mRNA inhibition (A431, 0.12 µM): 0%
target mRNA inhibition (A431, 0.6 µM): 8%
target mRNA inhibition (A431, 3 µM): 3%
target mRNA inhibition (A431, 15 µM): 0%
target mRNA inhibition (HepG2, 0.222 µM): 0%
target mRNA inhibition (HepG2, 0.667 µM): 8%
target mRNA inhibition (HepG2, 2 µM): 38%
target mRNA inhibition (HepG2, 6 µM): 48%

GATGCCCTGCACTGGGCCGT (sugars e5 d10 e5, PS)
target mRNA inhibition (HepG2, 4 µM): 15%

TATTCACAGGCTTGAAT (sugars e2 k2 d9 k2 e2, PS)
target mRNA inhibition (HepG2, 5 µM): 11%

CTAGGCCACGCCGAGGTCCT (sugars e5 d10 e5, PS)
target mRNA inhibition (HepG2, 4 µM): 39%

AGGATACATTTCTACAG (sugars e2 k2 d8 k2 e3, PS)
target mRNA inhibition (HepG2, 4 µM): 60%

GTCTCCAACATGCCTCT (sugars e3 k2 d7 k2 e3, PS)
target mRNA inhibition (HepG2, 3 µM): 8%

CCCTTCAGCACGCACAC (sugars e2 k2 d9 k2 e2, PS)
target mRNA inhibition (HepG2, 0.1875 µM): 14%
target mRNA inhibition (HepG2, 0.75 µM): 47%
target mRNA inhibition (HepG2, 3 µM): 82%
target mRNA inhibition (HepG2, 4 µM): 81%
target mRNA inhibition (HepG2, 12 µM): 97%

CCGTGTTTTCTGGATAGAGG (sugars e5 d10 e5, PS)
target mRNA inhibition (HepG2, 5 µM): 44% and 37%

TCCAAGGGAATGTTTAT (sugars e2 k2 d8 k2 e3, PS)
target mRNA inhibition (HepG2, 4 µM): 27%

GAGTTTTATAAAACTAT (sugars e3 k2 d7 k2 e3, PS)
target mRNA inhibition (HepG2, 3 µM): 6%

TCTCCAACATGCCTCTC (sugars e3 k2 d7 k2 e3, PS)
target mRNA inhibition (HepG2, 3 µM): 10%

TGAGATCACAGAATCTTCAA (sugars e5 d10 e5, PS)
target mRNA inhibition (HepG2, 5 µM): 30%

ATTTCCACCTTTGCCCA (sugars e3 k2 d7 k2 e3, PS)
target mRNA inhibition (HepG2, 3 µM): 63%

GTCTGGCAAAATACAGG (sugars e2 k2 d8 k2 e3, PS)
target mRNA inhibition (HepG2, 5 µM): 30%

AGGTACTTTAAAGCAACTCT (sugars e5 d10 e5, PS)
target mRNA inhibition (HepG2, 5 µM): 36%

CTGGCAAAATACAGGTC (sugars e2 k2 d9 k2 e2, PS)
target mRNA inhibition (HepG2, 5 µM): 53%

GTCACACAATTACACTT (sugars e2 k2 d9 k2 e2, PS)
target mRNA inhibition (HepG2, 5 µM): 35%

TACAGGTCATTGAAACA (sugars e2 k2 d8 k2 e3, PS)
target mRNA inhibition (HepG2, 5 µM): 26%

CAGTCAGTCCTTTAATGCTT (sugars e5 d10 e5, PS)
target mRNA inhibition (HepG2, 5 µM): 35% and 29%

AGCAGGATAACAGATGA (sugars e3 k2 d7 k2 e3, PS)
target mRNA inhibition (HepG2, 3 µM): 45%

CCCACACCTTCACTGGT (sugars e3 k2 d7 k2 e3, PS)
target mRNA inhibition (HepG2, 3 µM): 18%

CTCCTGAGAGTGAGATCACA (sugars e5 d10 e5, PS)
target mRNA inhibition (HepG2, 5 µM): 27%

GCAGGATAACAGATGAG (sugars e2 k2 d8 k2 e3, PS)
target mRNA inhibition (HepG2, 0.1875 µM): 26%
target mRNA inhibition (HepG2, 0.75 µM): 67%
target mRNA inhibition (HepG2, 3 µM): 84%
target mRNA inhibition (HepG2, 4 µM): 79%
target mRNA inhibition (HepG2, 12 µM): 93%

AGCTAGCAGGATAACAG (sugars e3 k2 d7 k2 e3, PS)
target mRNA inhibition (HepG2, 3 µM): 15%

AGGTCATTGAAACAGAC (sugars e3 k2 d7 k2 e3, PS)
target mRNA inhibition (HepG2, 3 µM): 21%

TTCCCCACACCTTCACTG (sugars e5 d8 e5, linkages s1 o3 s9 o2 s2)
target mRNA inhibition (A431, 0.12 µM): 2%
target mRNA inhibition (A431, 0.6 µM): 0%
target mRNA inhibition (A431, 3 µM): 0%
target mRNA inhibition (A431, 15 µM): 9%
target mRNA inhibition (HepG2, 0.222 µM): 7%
target mRNA inhibition (HepG2, 0.667 µM): 4%
target mRNA inhibition (HepG2, 2 µM): 42%
target mRNA inhibition (HepG2, 6 µM): 17%

TTTTTTAGTTTGAATTTGGA (sugars e5 d10 e5, PS)
target mRNA inhibition (HepG2, 5 µM): 0%

TTAAAGTGAGGACCTGC (sugars e3 k2 d7 k2 e3, PS)
target mRNA inhibition (HepG2, 3 µM): 14%

GCCTCAGACTACATCCA (sugars e3 k2 d7 k2 e3, PS)
target mRNA inhibition (HepG2, 3 µM): 43%

GATAGAGGATTAAAGTG (sugars e3 k2 d7 k2 e3, PS)
target mRNA inhibition (HepG2, 3 µM): 8%

GGCTTGAATGACAAAGA (sugars e2 k2 d9 k2 e2, PS)
target mRNA inhibition (HepG2, 5 µM): 44%

TGGGCGATCCCAATTAC (sugars e3 k2 d7 k2 e3, PS)
target mRNA inhibition (HepG2, 3 µM): 20%

CGAAATTGATGATGCCCTGC (sugars e5 d10 e5, PS)
target mRNA inhibition (HepG2, 4 µM): 32%

GATTCTTTTAATAGCCTCAT (sugars e5 d10 e5, PS)
target mRNA inhibition (HepG2, 5 µM): 4%

AGTGTTTAATGTTTATC (sugars ekekddddddddkekee, linkages s1 o2 s9 o2 s2)
target mRNA inhibition (A431, 0.062 µM): 52%
target mRNA inhibition (A431, 0.185 µM): 68%
target mRNA inhibition (A431, 0.556 µM): 79%
target mRNA inhibition (A431, 1.667 µM): 88%
target mRNA inhibition (A431, 5 µM): 89%
target mRNA inhibition (A431, 15 µM): 91%
target mRNA inhibition (SH-SY5Y, 0.062 µM): 38%
target mRNA inhibition (SH-SY5Y, 0.185 µM): 49%
target mRNA inhibition (SH-SY5Y, 0.556 µM): 61%
target mRNA inhibition (SH-SY5Y, 1.667 µM): 83%
target mRNA inhibition (SH-SY5Y, 5 µM): 81%
target mRNA inhibition (SH-SY5Y, 15 µM): 84%

ACAGCTAGCAGGATAAC (sugars e2 k2 d8 k2 e3, PS)
target mRNA inhibition (HepG2, 0.1875 µM): 11%
target mRNA inhibition (HepG2, 0.75 µM): 64%
target mRNA inhibition (HepG2, 3 µM): 87%
target mRNA inhibition (HepG2, 4 µM): 79%
target mRNA inhibition (HepG2, 12 µM): 95%

ATCTTCAATAGACACATCGG (sugars e5 d10 e5, PS)
target mRNA inhibition (HepG2, 5 µM): 16% and 0%

GTGTTTAATGTTTATCA (sugars e2 k2 d8 k2 e3, PS)
target mRNA inhibition (HepG2, 0.1875 µM): 44%
target mRNA inhibition (HepG2, 0.75 µM): 71%
target mRNA inhibition (HepG2, 3 µM): 83%
target mRNA inhibition (HepG2, 5 µM): 86%
target mRNA inhibition (HepG2, 12 µM): 84%

TTACTTTCCTTCTGCTCGAA (sugars e5 d10 e5, PS)
target mRNA inhibition (HepG2, 3 µM): 30%

ATAATAAGTGCCATACA (sugars e2 k2 d9 k2 e2, PS)
target mRNA inhibition (HepG2, 5 µM): 27%
